| melting point | Compound |
| --- | --- |
| 237 to 241 °C | Cl.Nc1ccc2[nH]c3c(c2c1)CCc1cn[nH]c1-3 |
| > 260 °C | Cl.O=C(O)c1n[nH]c2c1CCc1c-2[nH]c2ccccc12 |
| > 260 °C | O=[N+]([O-])c1ccc2[nH]c3c(c2c1)CCc1c[nH]nc1-3 [Example 1, 7-Nitro-2,4,5,10-tetrahydropyrazolo[3,4-a]carbazole] |
| > 260 °C | O=C(O)c1ccc2[nH]c3c(c2c1)CCc1c[nH]nc1-3 [Example 2, 2,4,5,10-Tetrahydropyrazolo[3,4-a]carbazole-7-carboxylic acid] |
| > 260 °C | O=C(O)c1cccc2[nH]c3c(c12)CCc1c[nH]nc1-3 [Example 3, 2,4,5,10-Tetrahydropyrazolo[3,4-a]carbazole-6-carboxylic acid] |
| > 260 °C | O=C(O)c1ccc2c3c([nH]c2c1)-c1n[nH]cc1CC3 [Example 4, 2,4,5,10-Tetrahydropyrazolo[3,4-a]carbazole-8-carboxylic acid] |
| 224 to 226 °C | CCOC(=O)c1[nH]nc2c1CCc1c-2[nH]c2ccccc12 [Example 5, Ethyl 2,4,5,10-tetrahydropyrazolo[3,4-a]carbazole-3-carboxylate] |
| 182 to 185 °C | CC(C)CC(=O)Nc1ccc2[nH]c3c(c2c1)CCc1cn[nH]c1-3 [Example 7, 3-Methyl-N-(1,4,5,10-tetrahydropyrazolo[3,4-a]carbazol-7-yl)butanamide] |
| 176 to 180 °C | O=C(Nc1ccc2[nH]c3c(c2c1)CCc1cn[nH]c1-3)c1cccs1 [Example 8, N-(1,4,5,10-tetrahydropyrazolo[3,4-a]carbazol-7-yl) thiophene-2-carboxamide] |
| 186 to 190 °C | CC(C)CNC(=O)c1ccc2[nH]c3c(c2c1)CCc1cn[nH]c1-3 [Example 9, N-isobutyl-1,4,5,10-tetrahydropyrazolo[3,4-a]carbazole-7-carboxamide] |
| 198 to 205 °C | CN1CCN(C(=O)c2ccc3[nH]c4c(c3c2)CCc2cn[nH]c2-4)CC1 [Example 10, 7-[(4-Methylpiperazin-1-yl)carbonyl]-1,4,5,10-tetrahydropyrazolo[3,4-a]carbazole] |
| 214 to 216 °C | CCOC(=O)c1ccc2[nH]c3c(c2c1)CCc1cn[nH]c1-3 [Example 11, Ethyl 1,4,5,10-tetrahydropyrazolo[3,4-a]carbazole-7-carboxylate] |
| 240 to 243 °C | COC(=O)c1ccc2c3c([nH]c2c1)-c1[nH]ncc1CC3 [Example 12, Methyl 1,4,5,10-tetrahydropyrazolo[3,4-a]carbazole-8-carboxylate] |

From patent publication US20060264493A1, “Tetracyclic pyrazole derivatives as kinase inhibitors, process for their preparation and pharmaceutical compositions comprising them” (priority 2003, published 2006)
